Test results as given in ChEMBL document CHEMBL1201862, “PubChem BioAssay data set” (2004).
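A five-concentration, 48-hour dose response in 96-well plates underlies each endpoint, interpolated linearly between surrounding concentrations. GI50: concentration for 50% inhibition of growth.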 Active and inactive are the calls of the source. No stated cut-off is given here; in the data, active = GI50 up to about 1.1 µM and inactive = higher.

How the values were obtained:
Assay in all cases: DTP human tumour cell line panel, 48 h
NCI-H226 = tested on: NCI-H226
UACC-62 = tested on: UACC-62
KM12 = tested on: KM12
NCI/ADR-RES = tested on: NCI/ADR-RES
SK-MEL-28 = tested on: SK-MEL-28
K562 = tested on: K562
HCC 2998 = tested on: HCC 2998
SF-295 = tested on: SF-295
MDA-N = tested on: MDA-N
UACC-257 = tested on: UACC-257
OVCAR-3 = tested on: OVCAR-3
MOLT-4 = tested on: MOLT-4
SNB-75 = tested on: SNB-75
MCF7 = tested on: MCF7
HT-29 = tested on: HT-29
RPMI-8226 = tested on: RPMI-8226
HCT-15 = tested on: HCT-15
CAKI-1 = tested on: CAKI-1
SNB-19 = tested on: SNB-19
COLO 205 = tested on: COLO 205

Row | SMILES | GI50 (NCI-H226) | GI50 (UACC-62) | GI50 (KM12) | GI50 (NCI/ADR-RES) | GI50 (SK-MEL-28) | GI50 (K562) | GI50 (HCC 2998) | GI50 (SF-295) | GI50 (MDA-N) | GI50 (UACC-257) | GI50 (OVCAR-3) | GI50 (MOLT-4) | GI50 (SNB-75) | GI50 (MCF7) | GI50 (HT-29) | GI50 (RPMI-8226) | GI50 (HCT-15) [µM] | GI50 (CAKI-1) | GI50 (SNB-19) | GI50 (COLO 205)
1 | O=C(N/N=C\c1ccc([N+](=O)[O-])cc1)c1ccccc1Nc1ccccc1C(=O)N/N=C/c1ccc([N+](=O)[O-])cc1 | > 100 µM (inactive) | > 100 µM (inactive) | > 100 µM (inactive) | > 100 µM (inactive) | > 100 µM (inactive) | > 100 µM (inactive) | > 100 µM (inactive) | > 100 µM (inactive) | > 100 µM (inactive) | > 100 µM (inactive) | > 100 µM (inactive) | 66.2 µM (inactive) | > 100 µM (inactive) | > 100 µM (inactive) | > 100 µM (inactive) | > 100 µM (inactive) | > 100 | > 100 µM (inactive) | > 100 µM (inactive) | > 100 µM (inactive)
2 | O=C1C2=Cc3ccccc3CCN2c2ccccc21 | 13.9 µM (inactive) | > 10 µM (inactive) | 26.7 µM (inactive) | 30.1 µM (inactive) | > 49.9 µM (inactive) | 12.7 µM (inactive) | 7.31 µM (inactive) | 34.4 µM (inactive) | > 10 µM (inactive) | 27.2 µM (inactive) | 91.4 µM (inactive) | 18.7 µM (inactive) | > 100 µM (inactive) | 14.9 µM (inactive) | 14.9 µM (inactive) | 13.5 µM (inactive) | 25.6 | 19.1 µM (inactive) | 46 µM (inactive) | > 41.7 µM (inactive)
3 | O=[N+]([O-])c1ccc2[nH]c(=S)[nH]c(=S)c2c1 | > 100 µM (inactive) | > 100 µM (inactive) | > 100 µM (inactive) | > 100 µM (inactive) | > 100 µM (inactive) | > 100 µM (inactive) | > 100 µM (inactive) | > 100 µM (inactive) | > 100 µM (inactive) | > 100 µM (inactive) | > 100 µM (inactive) | > 100 µM (inactive) | 20.7 µM (inactive) | > 100 µM (inactive) | > 100 µM (inactive) | > 100 µM (inactive) | > 100 | > 100 µM (inactive) | > 100 µM (inactive) | > 100 µM (inactive)
4 | CN(CCCNC(=O)c1nn(-c2ccc(Cl)cc2Cl)c2c1ccc1ccccc12)CCCNC(=O)c1nn(-c2ccc(Cl)cc2Cl)c2c1ccc1ccccc12 | 2.25 µM (inactive) | 1.65 µM (inactive) | 1.77 µM (inactive) | 1.59 µM (inactive) | 1.66 µM (inactive) | 1.1 µM (active) | 1.53 µM (inactive) | 1.67 µM (inactive) | 1.73 µM (inactive) | 1.78 µM (inactive) | 1.72 µM (inactive) | 1.61 µM (inactive) | 1.75 µM (inactive) | 1.56 µM (inactive) | 1.57 µM (inactive) | 1.87 µM (inactive) | 1.7 | 1.58 µM (inactive) | 1.54 µM (inactive) | 1.91 µM (inactive)
5 | O=C(CCCN1CC=C(n2c(=O)[nH]c3ccccc32)CC1)c1cccs1 | > 100 µM (inactive) | > 100 µM (inactive) | > 100 µM (inactive) | > 100 µM (inactive) | > 100 µM (inactive) | 66.2 µM (inactive) | > 100 µM (inactive) | > 100 µM (inactive) | > 100 µM (inactive) | > 100 µM (inactive) | > 100 µM (inactive) | 45.6 µM (inactive) | > 100 µM (inactive) | 11.8 µM (inactive) | 52.4 µM (inactive) | > 100 µM (inactive) | > 100 | > 100 µM (inactive) | > 100 µM (inactive) | > 100 µM (inactive)
6 | CC1C2CC(CC23OCC(CCl)O3)C1(C)C (stereo not given) | > 100 µM (inactive) | > 100 µM (inactive) | > 100 µM (inactive) | > 100 µM (inactive) | > 100 µM (inactive) | > 100 µM (inactive) | > 100 µM (inactive) | > 100 µM (inactive) | > 100 µM (inactive) | > 100 µM (inactive) | > 100 µM (inactive) | > 100 µM (inactive) | > 100 µM (inactive) | > 100 µM (inactive) | > 100 µM (inactive) | > 100 µM (inactive) | > 100 | > 100 µM (inactive) | > 100 µM (inactive) | > 100 µM (inactive)
7 | FC(F)(F)c1cccnc1Sc1nc2ccccc2s1 | 2.67 µM (inactive) | > 100 µM (inactive) | > 100 µM (inactive) | > 100 µM (inactive) | > 100 µM (inactive) | > 100 µM (inactive) | > 100 µM (inactive) | 63 µM (inactive) | > 100 µM (inactive) | > 100 µM (inactive) | 11.3 µM (inactive) | 52.1 µM (inactive) | 59.6 µM (inactive) | > 100 µM (inactive) | > 100 µM (inactive) | 45.8 µM (inactive) | > 100 | > 100 µM (inactive) | > 100 µM (inactive) | > 100 µM (inactive)
8 | COC(=O)C1CCC(=O)N1C(c1ccccc1)c1ccc(OC)c(OC)c1 (stereo not given) | > 100 µM (inactive) | > 100 µM (inactive) | > 100 µM (inactive) | > 100 µM (inactive) | > 100 µM (inactive) | > 100 µM (inactive) | > 100 µM (inactive) | > 100 µM (inactive) | > 100 µM (inactive) | > 100 µM (inactive) | > 100 µM (inactive) | > 10 µM (inactive) | 15.7 µM (inactive) | > 100 µM (inactive) | > 100 µM (inactive) | > 100 µM (inactive) | > 100 | > 100 µM (inactive) | > 100 µM (inactive) | > 100 µM (inactive)
9 | O=C1CCCC2=C(N1)C(=O)C=CC2=O | 11.1 µM (inactive) | 42.2 µM (inactive) | 25.6 µM (inactive) | 26.8 µM (inactive) | 45.4 µM (inactive) | 6.73 µM (inactive) | 60.8 µM (inactive) | 41.7 µM (inactive) | 16.8 µM (inactive) | 45.2 µM (inactive) | 43.5 µM (inactive) | 12.3 µM (inactive) | 43.8 µM (inactive) | 18.8 µM (inactive) | 42.8 µM (inactive) | 23.9 µM (inactive) | 42.2 | 32.5 µM (inactive) | 44.1 µM (inactive) | 23.8 µM (inactive)
10 | Cc1nc2c3c(ncn2n1)Oc1c(c(-c2ccccc2)nn1-c1ccccc1)C3c1ccc(Cl)cc1 (stereo not given) | > 100 µM (inactive) | 53.6 µM (inactive) | > 100 µM (inactive) | > 100 µM (inactive) | > 100 µM (inactive) | > 100 µM (inactive) | > 100 µM (inactive) | 50.8 µM (inactive) | > 100 µM (inactive) | > 100 µM (inactive) | > 100 µM (inactive) | > 100 µM (inactive) | 39.6 µM (inactive) | > 100 µM (inactive) | > 100 µM (inactive) | > 100 µM (inactive) | > 100 | > 100 µM (inactive) | 34.8 µM (inactive) | > 100 µM (inactive)
11 | Cc1csc(-n2nc(C)cc2C)n1 | > 100 µM (inactive) | > 100 µM (inactive) | > 100 µM (inactive) | > 100 µM (inactive) | > 100 µM (inactive) | > 100 µM (inactive) | > 100 µM (inactive) | > 100 µM (inactive) | > 100 µM (inactive) | > 100 µM (inactive) | > 100 µM (inactive) | 2.38 µM (inactive) | > 100 µM (inactive) | > 100 µM (inactive) | > 100 µM (inactive) | > 100 µM (inactive) | > 100 | > 100 µM (inactive) | > 100 µM (inactive) | > 100 µM (inactive)
12 | CC1(CCCO)CCCCCC(C)(CCCO)C1=O (stereo not given) | > 100 µM (inactive) | > 100 µM (inactive) | > 100 µM (inactive) | > 100 µM (inactive) | > 100 µM (inactive) | > 100 µM (inactive) | > 100 µM (inactive) | > 100 µM (inactive) | > 100 µM (inactive) | > 100 µM (inactive) | > 100 µM (inactive) | > 100 µM (inactive) | 92.3 µM (inactive) | 70.6 µM (inactive) | > 100 µM (inactive) | > 100 µM (inactive) | > 100 | > 100 µM (inactive) | > 100 µM (inactive) | > 100 µM (inactive)
13 | COc1ccc(/[N+]([O-])=C/c2ccccc2OC(=S)S)cc1 | 30.8 µM (inactive) | 32.6 µM (inactive) | 31 µM (inactive) | 28.1 µM (inactive) | 72.8 µM (inactive) | 37.4 µM (inactive) | 44.5 µM (inactive) | 33.8 µM (inactive) | 24.7 µM (inactive) | 29 µM (inactive) | 28.4 µM (inactive) | 37.7 µM (inactive) | 62.4 µM (inactive) | 33.6 µM (inactive) | 22.4 µM (inactive) | 25.6 µM (inactive) | 30.6 | 33.7 µM (inactive) | 51.3 µM (inactive) | 30.1 µM (inactive)
14 | C=CCSSCC=C | 32.1 µM (inactive) | 44.3 µM (inactive) | 68.9 µM (inactive) | 28.1 µM (inactive) | > 74.8 µM (inactive) | 5.5 µM (inactive) | > 100 µM (inactive) | 55.5 µM (inactive) | 19.8 µM (inactive) | 32.8 µM (inactive) | 52 µM (inactive) | 1.8 µM (inactive) | 60.8 µM (inactive) | 30.3 µM (inactive) | 38.4 µM (inactive) | 4.05 µM (inactive) | 38.5 | 44.8 µM (inactive) | > 100 µM (inactive) | 41.6 µM (inactive)
